This note sets out measurements from ChEMBL document CHEMBL1131390, “Inhibition of lipid peroxidation mediated by indolizines” (Bioorg Med Chem Lett, 1998).

The species entered for assay [1] is Rattus norvegicus. Description: Compound was tested in vitro for inhibitory activity against lipid peroxidation after 30 minutes. The format is functional. As to conditions: 0.5 h.
The species entered for assay [2] is Rattus norvegicus. Kind of assay: Compound was tested in vitro for inhibitory activity against lipid peroxidation at concentration 100 uM. It counts as functional, organism-based.

What is called IC50 is the concentration that gives 50% inhibition. Low values mean higher potency, high ones lower potency. Regarding `CC(=O)Oc1c(-c2ccccc2)c(-c2ccccc2)n2ccc(C(C)=O)cc12`, in the assay listed under Rattus norvegicus [1], the IC50 came out at 5.3 µM.

With `COC(=O)Oc1c(-c2ccccc2)c(-c2ccccc2)n2ccc(C=O)cc12`, the IC50 in the assay listed under Rattus norvegicus [1] amounted to 2.6 µM.

In the assay filed under Rattus norvegicus [1], `CC(=O)Oc1c(-c2ccccc2)c(-c2ccccc2)n2cc(C(C)=O)ccc12` came in with an IC50 of 3.5 µM.

Molecule `CC(=O)Oc1c(-c2ccccc2)c(-c2ccccc2)n2ccccc12` registered a 50% inhibitory concentration (IC50) in the assay filed under Rattus norvegicus [1] of 11.8 µM.

`CC(=O)Oc1c(-c2ccccc2)c(-c2ccccc2)n2ccc(C=O)cc12` showed an IC50 in the assay filed under Rattus norvegicus [1] of 2.9 µM.

For the molecule `O=Cc1ccn2c(-c3ccccc3)c(-c3ccccc3)c(OC(=O)Nc3ccccc3)c2c1`, the IC50 in the assay listed under Rattus norvegicus [1] was 3.2 µM.

As to `CC(=O)Oc1c(-c2ccccc2)c(-c2ccccc2)n2ccc(C(=O)c3ccccc3)cc12`, the IC50 in the assay filed under Rattus norvegicus [1] stood at 2.5 µM.

On to `COc1c(-c2ccccc2)c(-c2ccccc2)n2ccc(C=O)cc12`, for which the half-inhibitory concentration (IC50) in the assay listed under Rattus norvegicus [1] amounted to 4.2 µM.

Consider `CC(=O)Oc1c(-c2ccccc2)c(-c2ccccc2)n2ncccc12`, for which the IC50 in the assay filed under Rattus norvegicus [1] came out at 3.1 µM.

By inhibition is commonly meant the share of the control response that was lost under treatment. The low end stands for little suppression, the high end for strong suppression. Regarding `CC(=O)Oc1c(-c2ccccc2)c(-c2ccccc2)n2ncc3ccccc3c12`, the inhibition in the assay filed under Rattus norvegicus [2] turned out to be 28%.

In the case of `CCCCCCCCCCCCCCCC(=O)Oc1c(-c2ccccc2)c(-c2ccccc2)n2ccc(C=O)cc12`, the inhibition in the assay listed under Rattus norvegicus [2] came out at 9%.
